Experiments:
[1] = test system: Nile tilapia (Oreochromis niloticus) exposed to 5 ppm CdCl2.H2O; test: Cadmium concentration in tissues by atomic absorption spectrophotometer after 21 days exposure; type: in vivo; details: fish exposed to Cd only (5 ppm), control 205.4804±62.9 ng/g
Procedure: (§1) Experimental design was as follows. Adult Nile tilapia, Oreochromis niloticus (n=120 fish), with an average length of 20±4 cm and weight of 150 g-200 g were procured from the local fish farm near Riyadh City. They were checked thoroughly for injury and disease conditions. After washing with 0.01% KMnO4 solution for 15 min, they were divided into five groups each comprising 20 fish and kept in glass tanks (100 L capacity) with non-chlorinated tap water. Prior to the start of the experiment, the fish were acclimated to the food and laboratory conditions with 12 hr dark and 12 hr light cycles, pH range of 6 to 8 and temperature ranging from 20° C. to 24° C. for 15 days. The exposure period was 21 days. Through the entire experimental period the fish were fed commercial pelleted diet at 2% body weight.
(§2) The experimental groups were in replicates as follows. Group I was the negative control which contained dechlorinated tap water with no added CdCl2.H2O and without any antioxidant treatment (designated “Control” in FIGS. 9-10). […]
Cadmium concentration in tissues was determined as follows. […] The concentration of Cd in digested tissue samples were analyzed in an atomic absorption spectrophotometer.
Cadmium accumulation in liver was assessed as follows. […]

[2] = test system: HSP70; test: HSP70 levels in gills (ELISA kit) after 21 days exposure; type: in vivo, Oreochromis niloticus; details: fish exposed to Cd only (5 ppm), control 152.8800±11.81554 pg/g
Procedure: as §1, §2
Biochemical analysis was performed as follows. A quantitation of MDA levels in the liver (lipid peroxides) was done by a high performance liquid chromatographic (HPLC) method. […] The levels of hepatic metalothionein levels (MT-2) and HSP70 in […] were also assessed using commercial ELISA kits.
Heat shock protein (HSP70) in gills was determined as follows. […]

## O.[Cd+2].[Cl-].[Cl-] [Cd, CdCl2.H2O]
[1]
  Cd concentration in the liver: 1113.3320 ± 48.39 ng/g
[2]
  HSP70 concentration in gills: 251.6600 ± 19.36 pg/g
